From patent US10821115B2, “Compounds that inhibit Mcl-1 protein” (priority 2017, dated 2020) come the findings set out here.

Molecules are shown by their SMILES. Where two headings read alike, the source gives them in different places.

In this assay the test system is human multiple myeloma cell line, OPM-2. In words: Cell viability assay (OPM-2 10 FBS), CellTiter-Glo. It is filed as cell-based. The protocol: Cell viability assay (OPM-2 10 FBS)
The human multiple myeloma cell line, OPM-2, was cultured in complete growth medium containing RPMI 1640 and 10% fetal bovine serum (FBS). Cells were seeded into 384-well plates at 3000 cells/well density in complete growth medium containing 10% FBS, and incubated for 16 h with serially diluted test compounds in a 37° C. incubator with 5% CO2. Cell viability was tested using CellTiter-Glo® assay (Promega, Madison, Wis.) according to the manufacturer recommendations. Luminescence was determined using an EnVision® Multilabel plate reader 25 min after the addition of detection reagent. IC50 values were then calculated with Xlfit using a logistical 4-parameter fit model in GraphPad Prism (GraphPad Software, San Diego, Calif.) or in Genedata Screener® (Genedata, Basel, Switzerland).

Setting [1] is: read-out: OPM-2 10% FBS IC50 IP, OPM-2 cells, 10% FBS, 16 h incubation.
Where [2] appears, read: read-out: OPM-2 10% FBS IC50 IP, OPM-2 cells, 10% FBS, 16 h, CellTiter-Glo.
Where [3] appears, read: Homo sapiens, OPM-2, 16 h, read-out: OPM-2 10% FBS IC50 IP, OPM-2 cells, 10% FBS, 16 h, CellTiter-Glo.
[4] abbreviates: Homo sapiens, OPM-2, 16 h, read-out: OPM-2 10% FBS IC50 IP, OPM-2 cells, 10% FBS, 16 h incubation.

The IC50 is the concentration needed to halve the response being measured. As for `CO[C@@]1(C(=O)N(C)C)/C=C/C[C@H](C)[C@@H](C)S(=O)(=O)NC(=O)c2ccc3c(c2)N(C[C@@H]2CC[C@H]21)C[C@@]1(CCCc2cc(Cl)ccc21)CO3` [Example 176, (1S,3′R,6′R,7′S,8′E,11′S,12′R)-6-chloro-7′-methoxy-N,N, 11′,12′-tetramethyl-15′-oxo-3,4-dihydro-2H-spiro[naphthalene-1,22′-[20]oxa[13]thia[1,14]diazatetracyclo[14.7.2.0-3,6˜.0˜19,24˜]pentacosa[8,16,18,24]tetraene]-7′-carboxamide 13′,13′-dioxide], the half-maximal inhibitory concentration (IC50) under setting [1] was 149 nM.

For the compound `CO[C@]1(c2cccnc2F)/C=C/C[C@H](C)[C@@H](C)S(=O)(=O)NC(=O)c2ccc3c(c2)N(C[C@@H]2CC[C@H]21)C[C@@]1(CCCc2cc(Cl)ccc21)CO3` [Example 100325, (1S,3′R,6′R,7′R,8′E,11′S,12′R)-6-chloro-7′-(2-fluoro-3-pyridinyl)-7′-methoxy-11′,12′-dimethyl-3,4-dihydro-2H,15′H-spiro[naphthalene-1,22′-[20]oxa[13]thia[1,14]diazatetracyclo [14.7.2.0~3,6~.0~19,24~]pentacosa[8,16,18,24]tetraen]-15′-one 13′,13′-dioxide], under setting [2], the 50% inhibitory concentration (IC50) amounted to 482 nM.

With `CO[C@]1(CN2CCN3CCN(C(C)=O)C[C@@H]3C2)/C=C/C[C@H](C)[C@@H](C)S(=O)(=O)NC(=O)c2ccc3c(c2)N(C[C@@H]2CC[C@H]21)C[C@@]1(CCCc2cc(Cl)ccc21)CO3` (single isomer, unassigned) [Example 229], the half-maximal inhibitory concentration (IC50) under setting [1] was found to be 96 nM.

Take `CO[C@]1(CN2CCN3CCS(=O)(=O)C[C@@H]3C2)/C=C/C[C@H](C)[C@@H](C)S(=O)(=O)NC(=O)c2ccc3c(c2)N(C[C@@H]2CC[C@H]21)C[C@@]1(CCCc2cc(Cl)ccc21)CO3` [Example 219]: the IC50 under setting [1] is 47 nM.

Regarding `COC[C@@]1(OC)/C=C/C[C@H](C)[C@@H](C)S(=O)(=O)NC(=O)c2ccc3c(c2)N(C[C@@H]2CC[C@H]21)C[C@@]1(CCCc2cc(Cl)ccc21)CO3` [Example 100464, (1S,3′R,6′R,7′R,8′E,11′S,12′R)-6-chloro-7′-methoxy-7′-(methoxymethyl)-11′,12′-dimethyl-3,4-dihydro-2H,15′H-spiro[naphthalene-1,22′-[20]oxa[13]thia[1,14]diazatetracyclo [14.7.2.0~3,6~.0~19,24~]pentacosa[8,16,18,24]tetraen]-15′-one 13′,13′-dioxide], under setting [3], the IC50 was 1530 nM.

Regarding `CCO[C@]1(CN2CCN(C(COC)COC)CC2)/C=C/C[C@H](C)[C@@H](C)S(=O)(=O)NC(=O)c2ccc3c(c2)N(C[C@@H]2CC[C@H]21)C[C@@]1(CCCc2cc(Cl)ccc21)CO3` [Example 116, (1S,3′R,6′R,7′R,8′E,11′S,12′R)-6-chloro-7′-ethoxy-7′-((4-(2-methoxy-1-(methoxymethyl)ethyl)-1-piperazinyl)methyl)-11′,12′-dimethyl-3,4-dihydro-2H,15′H-spiro[naphthalene-1,22′-[20]oxa[13]thia[1,14]diazatetracyclo [14.7.2.0~3,6~.0~19,24~]pentacosa[8,16,18,24]tetraen]-15′-one 13′,13′-dioxide], under setting [4], the IC50 was found to be 387 nM.

For `CO[C@@]1(CN2CCC(N3CCOCC3)CC2)/C=C/C[C@H](C)[C@@H](C)S(=O)(=O)NC(=O)c2ccc3c(c2)N(C[C@@H]2CC[C@H]21)C[C@@]1(CCCc2cc(Cl)ccc21)CO3` [Example 263, (1S,3′R,6′R,7′S,8′E,11′S,12′R)-6-chloro-7′-methoxy-11′,12′-dimethyl-7′-((4-(4-morpholinyl)-1-piperidinyl)methyl)-3,4-dihydro-2H,15′H-spiro[naphthalene-1,22′-[20]oxa[13]thia[1,14]diazaetracyclo [14.7.2.0~3,6~.0~19,24~]pentacosa[8,16,18,24]tetraen]-15′-one 13′,13′-dioxide], under setting [4], the half-inhibitory concentration (IC50) is 124 nM.

With `C[C@@H]1[C@@H](C)C/C=C/[C@@](O)(C#C[Si](C)(C)C)[C@@H]2CC[C@H]2CN2C[C@@]3(CCCc4cc(Cl)ccc43)COc3ccc(cc32)C(=O)NS1(=O)=O` [Example 100240, (1S,3′R,6′R,7′S,8′E,11′S,12′R)-6-chloro-7′-hydroxy-11′,12′-dimethyl-7′-((trimethylsilyl)ethynyl)-3,4-dihydro-2H,15′H-spiro[naphthalene-1,22′-[20]oxa[13]thia[1,14]diazatetracyclo [14.7.2.0~3,6~.0~19,24~]pentacosa[8,16,18,24]tetraen]-15′-one 13′,13′-dioxide], the half-inhibitory concentration (IC50) under setting [2] was determined as 266 nM.

For the compound `C=C(C)C(=O)C[C@]1(OC)/C=C/C[C@H](C)[C@@H](C)S(=O)(=O)NC(=O)c2ccc3c(c2)N(C[C@@H]2CC[C@H]21)C[C@@]1(CCCc2cc(Cl)ccc21)CO3` [Example 100476, (1S,3′R,6′R,7′S,8′E,11′S,12′R)-6-chloro-7′-methoxy-11′,12′-dimethyl-7′-(3-methyl-2-oxo-3-buten-1-yl)-3,4-dihydro-2H,15′H-spiro[naphthalene-1,22′-[20]oxa[13]thia[1,14]diazatetracyclo [14.7.2.0~3,6~.0~19,24~]pentacosa[8,16,18,24]tetraen]-15′-one 13′,13′-dioxide], the IC50 under setting [3] is 1340 nM.

As for `CO[C@@]1(CC(=O)N(C)C2CC2)/C=C/C[C@H](C)[C@@H](C)S(=O)(=O)NC(=O)c2ccc3c(c2)N(C[C@@H]2CC[C@H]21)C[C@@]1(CCCc2cc(Cl)ccc21)CO3` [Example 100374, 2-((1S,3′R,6′R,7′S,8′E,11′S,12′R)-6-chloro-7′-methoxy-11′,12′-dimethyl-13′,13′-dioxido-15′-oxo-3,4-dihydro-2H-spiro[naphthalene-1,22′-[20]oxa[13]thia[1,14]diazatetracyclo [14.7.2.0~3,6~.0~19,24~]pentacosa[8,16,18,24]tetraen]-7′-yl)-N-cyclopropyl-N-methylacetamide], the IC50 under setting [3] was 433 nM.

In the case of `CO[C@@]1(CC(N)=O)/C=C/C[C@H](C)[C@@H](C)S(=O)(=O)NC(=O)c2ccc3c(c2)N(C[C@@H]2CC[C@H]21)C[C@@]1(CCCc2cc(Cl)ccc21)CO3` [Example 100589, 2-((1S,3′R,6′R,7′S,8′E,11′S,12′R)-6-chloro-7′-methoxy-11′,12′-dimethyl-13′,13′-dioxido-15′-oxo-3,4-dihydro-2H-spiro[naphthalene-1,22′-[20]oxa[13]thia[1,14]diazatetracyclo [14.7.2.0~3,6~.0~19,24~]pentacosa[8,16,18,24]tetraen]-7′-yl)acetamide], under setting [3], the IC50 was 3330 nM.

Regarding `CCO[C@@]1(CN2CCN3CCCC[C@@H]3C2)/C=C/C[C@H](C)[C@@H](CCOC)S(=O)(=O)NC(=O)c2ccc3c(n2)N(C[C@@H]2CC[C@H]21)C[C@@]1(CCCc2cc(Cl)ccc21)CO3` [Example 370, (1S,3′R,6′R,7′S,8′E,11′S,12′R)-6-chloro-7′-ethoxy-12′-(2-methoxyethyl)-11′-methyl-7′-((9aR)-octahydro-2H-pyrido[1,2-a]pyrazin-2-ylmethyl)-3,4-dihydro-2H,15′H-spiro[naphthalene-1,22′-[20]oxa[13]thia[1,14,25]triazatetracyclo [14.7.2.0~3,6~.0~19,24~]pentacosa[8,16,18,24]tetraen]-15′-one 13′,13′-dioxide], the half-maximal inhibitory concentration (IC50) under setting [4] came to 369 nM.

In the case of `CO[C@@]1(CC(=O)NCc2ncco2)/C=C/C[C@H](C)[C@@H](C)S(=O)(=O)NC(=O)c2ccc3c(c2)N(C[C@@H]2CC[C@H]21)C[C@@]1(CCCc2cc(Cl)ccc21)CO3` [Example 100577, 2-((1S,3′R,6′R,7′S,8′E,11′S,12′R)-6-chloro-7′-methoxy-11′,12′-dimethyl-13′,13′-dioxido-15′-oxo-3,4-dihydro-2H-spiro[naphthalene-1,22′-[20]oxa[13]thia[1,14]diazatetracyclo [14.7.2.0~3,6~.0~19,24~]pentacosa[8,16,18,24]tetraen]-7′-yl)-N-(1,3-oxazol-2-ylmethyl)acetamide], the IC50 under setting [3] came to 2020 nM.

For `C[C@@H]1[C@@H](C)C/C=C/C(O)(CN2CCN3CCCC[C@@H]3C2)[C@@H]2CC[C@H]2CN2C[C@@]3(CCCc4cc(Cl)ccc43)COc3ccc(cc32)C(=O)NS1(=O)=O` (single isomer, unassigned) [Example 242], the 50% inhibitory concentration (IC50) under setting [1] turned out to be 791 nM.

Turning to `CO[C@]1(CN2CCN3CCCC[C@H]3C2)/C=C/C[C@H](C)[C@@H](C)S(=O)(=O)NC(=O)c2ccc3c(c2)N(C[C@@H]2CC[C@H]21)C[C@@]1(CCCc2cc(Cl)ccc21)CO3` [Example 78, (1S,3′R,6′R,7′R,8′E,11′S,12′R)-6-chloro-7′-methoxy-11′,12′-dimethyl-7′-((9aS)-octahydro-2H-pyrido[1,2-a]pyrazin-2-ylmethyl)-3,4-dihydro-2H,15′H-spiro[naphthalene-1,22′-[20]oxa[13]thia[1,14]diazateracyclo [14.7.2.0~3,6~.0~19,24~]pentacosa[8,16,18,24]tetraen]-15′-one 13′,13′-dioxide], the 50% inhibitory concentration (IC50) under setting [4] came out at 175 nM.

With `CO[C@@]1(CC(=O)NCCO)/C=C/C[C@H](C)[C@@H](C)S(=O)(=O)NC(=O)c2ccc3c(c2)N(C[C@@H]2CC[C@H]21)C[C@@]1(CCCc2cc(Cl)ccc21)CO3` [Example 100465, 2-((1S,3′R,6′R,7′S,8′E,11′S,12′R)-6-chloro-7′-methoxy-11′,12′-dimethyl-13′,13′-dioxido-15′-oxo-3,4-dihydro-2H-spiro[naphthalene-1,22′-[20]oxa[13]thia[1,14]diazatetracyclo [14.7.2.0~3,6~.0~19,24~]pentacosa[8,16,18,24]tetraen]-7′-yl)-N-(2-hydroxyethyl)acetamide], under setting [3], the half-inhibitory concentration (IC50) was 729 nM.
